The source of these data is US20250179017A1 (GUANGDONG NEWOPP BIOPHARMACEUTICALS CO., LTD., priority 2022, published 2025).

In the assay the target is T1, human EP2 (PTGER2) (Homo sapiens, UniProt P43116).
T1 construct: Cayman Chemical (Human EP2 Reporter Assay Kit)
T1 sequence (P43116 whole entry): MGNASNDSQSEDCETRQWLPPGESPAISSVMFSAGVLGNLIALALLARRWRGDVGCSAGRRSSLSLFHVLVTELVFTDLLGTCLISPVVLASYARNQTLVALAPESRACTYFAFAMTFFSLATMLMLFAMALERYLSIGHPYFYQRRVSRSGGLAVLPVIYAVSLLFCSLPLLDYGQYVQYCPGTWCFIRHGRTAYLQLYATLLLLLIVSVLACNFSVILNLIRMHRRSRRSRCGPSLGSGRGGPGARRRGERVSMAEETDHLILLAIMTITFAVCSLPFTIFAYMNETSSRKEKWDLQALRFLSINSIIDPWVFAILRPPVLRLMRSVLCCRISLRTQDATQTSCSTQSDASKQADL
Kind of assay: EP2 antagonist assay (HEK-293 CNG membrane potential cAMP assay / 293T SEAP reporter assay, PGE2-stimulated). Format: cell-based. Particulars: EP2 antagonist activity; concentration for 50% inhibition of signal compared to DMSO. From the text:
1. The HEK-293 CNG (Cyclic Nucleotide Gated) cell line expressing a modified CNG channel that leads to cell membrane depolarization in response to elevated intracellular cAMP levels, which can be measured using a fluorescent membrane potential dye, was engineered to express human EP2 (PTGER2) or EP4 (EP4R). The resulting cell line ACTOne™ PTGER2 or ACTOne™ EP4R as well as the fluorescent membrane potential dye were purchased from eEnzyme (Gaithersburg, MD, US) and used in this assay. Briefly, cells were plated at 1.2×10^4 cells/well in 20 μL DMEM supplemented with 2% Fetal Bovine Serum (FBS, VWR International), 1x Penicillin/Streptomycin (GenClone), 0.2 μg/mL puromycin (InvivoGen) and 50 μg/mL G418 (InvivoGen) on a 384 well plate (Greiner). The next day, cells were dye-loaded with 20 μL/well of 1x Dye-loading solution (eENZYME) following the manufacturer's instruction. After 2 hours of incubation at room temperature (RT) in the dark, a pre-read was made to obtain the background signals using CLARIOstar plate reader (BMG LABTECH, Germany) with the following filter settings: excitation=530/20 nm, emission=590/20 nm. Next, a serial dilution of compound (plus a DMSO control) were added to the plate (5 μL/well) and the reaction was incubated at RT for 15 min before adding 5 μL of PGE2 to every well for a final concentration of 5 nM. All wells were duplicated. The plate was then further incubated at RT for 30 min prior to a final read with the same machine settings. Background-subtracted signals were used to calculate IC50 values.
2. Human EP2 and EP4 Reporter Assay Kits were purchased from Cayman Chemical (Ann Arbor, MI, USA). The assay was performed following the provided User Manual. Briefly, a reverse transfection was performed by seeding 6.0×10^4 of 293T cells (ATCC) to each well of the provided Strip Plate coated with a proprietary transfection complex containing DNA constructs for expressing human EP2 or EP4 and a cAMP response element regulated secreted alkaline phosphatase (SEAP) reporter, in 200 μL DMEM supplemented with 2% FBS and incubated for 20-24 hours at 37° C. with 5% CO2. After the incubation, the culture medium was carefully removed, and the cells were replenished with 150 μL pre-warmed serum-free medium. PGE2 and test compounds were prepared together at 4x the desired final concentration, and 50 μL was added to each assigned well with the final concentration of 13 nM and 2 nM PGE2 for EP2 and EP4 assay, respectively. After 6-8 hours of incubation, 10 μL media from each well was transferred to corresponding well of a new plate, which was then sealed and incubated at 65° C. for 30 min. The plate was then cooled down to RT and 50 μL SEAP substrate was added to each well. Luminescence signal was measured using a CLARIOstar plate reader.
The IC50 value was determined as the concentration for 50% inhibition of signal compared to DMSO (A: IC50 […]; B: IC50 between 100 nM and 1,000 nM; C: IC50≥1,000 nM).
For `O=C(NC1CC2(C1)CC(C(=O)O)C2)c1cc(Br)cc2[nH]cc(Sc3ccc(C(F)(F)F)cc3)c12` (racemic) [Example 112, (+) 6-(6-bromo-3-((4-(trifluoromethyl)phenyl)thio)-1H-indole-4-carboxamido)spiro[3.3]heptane-2-carboxylic acid], the IC50 (commonly the point on the concentration scale where inhibition reaches its midpoint) is 100 to 1000 nM. Then `O=C(NC1CC2(C1)CC(C(=O)O)C2)c1cc(-c2ccccc2)cc2[nH]cc(Sc3ccc(C(F)(F)F)cc3)c12` (racemic) [Example 113, (±) 6-(6-phenyl-3-((4-(trifluoromethyl)phenyl)thio)-1H-indole-4-carboxamido)spiro[3.3]heptane-2-carboxylic acid], with below 100 nM; and `N#Cc1cccc(-c2cc(C(=O)NC3CC4(C3)CC(C(=O)O)C4)c3c(Sc4ccc(C(F)(F)F)cc4)c[nH]c3c2)c1` (racemic) [Example 114, (±) 6-(6-(3-cyanophenyl)-3-((4-(trifluoromethyl)phenyl)thio)-1H-indole-4-carboxamido)spiro[3.3]heptane-2-carboxylic acid], with below 100 nM; and `NC(=O)c1cccc(-c2cc(C(=O)NC3CC4(C3)CC(C(=O)O)C4)c3c(Sc4ccc(C(F)(F)F)cc4)c[nH]c3c2)c1` (racemic) [Example 115, (±) 6-(6-(3-carbamoylphenyl)-3-((4-(trifluoromethyl)phenyl)thio)-1H-indole-4-carboxamido)spiro[3.3]heptane-2-carboxylic acid], with 100 to 1000 nM. With `CC(c1ccc(C(F)(F)F)cc1)n1ccc2cc(-c3ccccc3)cc(C(=O)NCc3ccc(C(=O)O)cc3)c21` (racemic) [Example 178, (±) 4-((5-phenyl-1-(1-(4-(trifluoromethyl)phenyl)ethyl)-1H-indole-7-carboxamido)methyl)benzoic acid] the figure was below 100 nM; with `CC(NC(=O)c1cc(-c2ccccc2)cc2cnn(Cc3cccc(C(F)(F)F)c3)c12)[C@H]1CC[C@H](C(=O)O)CC1` (mixture of isomers) [Example 222, (±) (1r,4r)-4-1-(5-phenyl-1-(3-(trifluoromethyl)benzyl)-1H-indazole-7-carboxamido)ethyl)cyclohexane-1-carboxylic acid], below 100 nM. Then `C[C@@H](NC(=O)c1cc(-c2ccc(F)cc2)cc2ccn(Cc3ccc(C(F)(F)F)cc3)c12)c1ccc(C(=O)O)cc1` [Example 3, (R)-4-(1-(5-(4-fluorophenyl)-1-(4-(trifluoromethyl)benzyl)-1H-indole-7-carboxamido)ethyl)benzoic acid], with at least 1000 nM; and `C[C@@H](NC(=O)c1cc(-c2ccccc2)cc2ccn(Cc3ccc(C(F)(F)F)cc3)c12)c1ccc(C(=O)O)cc1` [Example 4, (R)-4-(1-(5-phenyl-1-(4-(trifluoromethyl)benzyl)-1H-indole-7-carboxamido)ethyl)benzoic acid], with at least 1000 nM. `O=C(O)c1ccc(C2(NC(=O)c3cc(-c4ccc(F)cc4)cc4ccn(Cc5ccc(C(F)(F)F)cc5)c34)CC2)cc1` [Example 5, 4-(1-(5-(4-fluorophenyl)-1-(4-(trifluoromethyl)benzyl)-1H-indole-7-carboxamido)cyclopropyl)-benzoic acid] displayed an IC50 of 100 to 1000 nM.

The compound `O=C(O)c1ccc(C2(NC(=O)c3cc(-c4ccccc4)cc4ccn(Cc5ccc(C(F)(F)F)cc5)c34)CC2)cc1` [Example 6, 4-(1-(5-phenyl-1-(4-(trifluoromethyl)benzyl)-1H-indole-7-carboxamido)cyclopropyl)benzoiacid] gave a half-inhibitory concentration (IC50) of 100 to 1000 nM.

On to `O=C(O)c1ccc(CNC(=O)c2cc(-c3ccc(F)c(F)c3)cc3ccn(Cc4ccc(C(F)(F)F)cc4)c23)cc1` [Example 8, 4-((5-(3,4-difluorophenyl)-1-(4-(trifluoromethyl)benzyl)-1H-indole-7-carboxamido)methyl)benzoic acid], for which the IC50 was below 100 nM.

The compound `O=C(O)c1ccc(CNC(=O)c2cc(-c3cccc(C(F)(F)F)c3)cc3ccn(Cc4ccc(C(F)(F)F)cc4)c23)cc1` [Example 10, 4-((1-(4-(trifluoromethyl)benzyl)-5-(3-(trifluoromethyl)phenyl)-1H-indole-7-carboxamido)methyl)benzoic acid] yielded a 50% inhibitory concentration (IC50) of 100 to 1000 nM.

In the case of `O=C(O)c1ccc(CNC(=O)c2cc(-c3cc(F)cc(C(F)(F)F)c3)cc3ccn(Cc4ccc(C(F)(F)F)cc4)c23)cc1` [Example 11, 4-((5-(3-fluoro-5-(trifluoromethyl)phenyl)-1-(4-(trifluoromethyl)benzyl)-1H-indole-7-carboxamido)methyl)benzoic acid], the IC50 is below 100 nM. Compound `C[C@@H](NC(=O)c1cc(-c2cccc(C#N)c2)cc2ccn(Cc3ccc(C(F)(F)F)cc3)c12)c1ccc(C(=O)O)cc1` [Example 12, (R)-4-(1-(5-(3-cyanophenyl)-1-(4-(trifluoromethyl)benzyl)-1H-indole-7-carboxamido)ethyl) benzoic acid] displayed a concentration for half-maximal inhibition (IC50) of at least 1000 nM. Then `C[C@@H](NC(=O)c1cc(-c2ccc(F)c(F)c2)cc2ccn(Cc3ccc(C(F)(F)F)cc3)c12)c1ccc(C(=O)O)cc1` [Example 13, (R)-4-(1-(5-(3,4-difluorophenyl)-1-(4-(trifluoromethyl)benzyl)-1H-indole-7-carboxamido)ethyl)benzoic acid], with at least 1000 nM. With `C[C@@H](NC(=O)c1cc(-c2cc(F)cc(F)c2)cc2ccn(Cc3ccc(C(F)(F)F)cc3)c12)c1ccc(C(=O)O)cc1` [Example 14, (R)-4-(1-(5-(3,5-difluorophenyl)-1-(4-(trifluoromethyl)benzyl)-1H-indole-7-carboxamido)ethyl) benzoic acid] the figure was at least 1000 nM; with `C[C@@H](NC(=O)c1cc(-c2cccc(C(F)(F)F)c2)cc2ccn(Cc3ccc(C(F)(F)F)cc3)c12)c1ccc(C(=O)O)cc1` [Example 15, (R)-4-(1-(1-(4-(trifluoromethyl)benzyl)-5-(3-(trifluoromethyl)phenyl)-1H-indole-7-carboxamido)ethyl) benzoic acid], at least 1000 nM. Then `C[C@@H](NC(=O)c1cc(-c2cc(F)cc(C(F)(F)F)c2)cc2ccn(Cc3ccc(C(F)(F)F)cc3)c12)c1ccc(C(=O)O)cc1` [Example 16, (R)-4-(1-(5-(3-fluoro-5-(trifluoromethyl)phenyl)-1-(4-(trifluoromethyl)benzyl)-1H-indole-7-carboxamido)ethyl)benzoic acid], with at least 1000 nM; and `N#Cc1cccc(-c2cc(C(=O)NC3(c4ccc(C(=O)O)cc4)CC3)c3c(ccn3Cc3ccc(C(F)(F)F)cc3)c2)c1` [Example 17, 4-(1-(5-(3-cyanophenyl)-1-(4-(trifluoromethyl)benzyl)-1H-indole-7-carboxamido)cyclopropyl)benzoic acid], with below 100 nM; and `O=C(O)c1ccc(C2(NC(=O)c3cc(-c4ccc(F)c(F)c4)cc4ccn(Cc5ccc(C(F)(F)F)cc5)c34)CC2)cc1` [Example 18, 4-(1-(5-(3,4-difluorophenyl)-1-(4-(trifluoromethyl)benzyl)-1H-indole-7-carboxamido)cyclopropyl)benzoic acid], with 100 to 1000 nM. For `O=C(O)c1ccc(C2(NC(=O)c3cc(-c4cc(F)cc(F)c4)cc4ccn(Cc5ccc(C(F)(F)F)cc5)c34)CC2)cc1` [Example 19, 4-(1-(5-(3,5-difluorophenyl)-1-(4-(trifluoromethyl)benzyl)-1H-indole-7-carboxamido)cyclopropyl)benzoic acid], the IC50 was at least 1000 nM.

For the compound `O=C(O)c1ccc(C2(NC(=O)c3cc(-c4cccc(C(F)(F)F)c4)cc4ccn(Cc5ccc(C(F)(F)F)cc5)c34)CC2)cc1` [Example 20, 4-(1-(1-(4-(trifluoromethyl)benzyl)-5-(3-(trifluoromethyl)phenyl)-1H-indole-7-carboxamido)cyclopropyl)benzoic acid], the IC50 is at least 1000 nM. `O=C(O)c1ccc(C2(NC(=O)c3cc(-c4cc(F)cc(C(F)(F)F)c4)cc4ccn(Cc5ccc(C(F)(F)F)cc5)c34)CC2)cc1` [Example 21, 4-(1-(5-(3-fluoro-5-(trifluoromethyl)phenyl)-1-(4-(trifluoromethyl)benzyl)-1H-indole-7-carboxamido)cyclopropyl)benzoic acid] showed an IC50 of 100 to 1000 nM.
